The values that follow come from patent US7592350B2, “Polycyclic compounds as potent alpha2-adrenoceptor antagonists” (Orion Corporation, priority 2002, dated 2009).

Assay [1] concerns the target T1, alpha2C-adrenoceptor (Homo sapiens, UniProt P18825).
T1 sequence (P18825 1-462): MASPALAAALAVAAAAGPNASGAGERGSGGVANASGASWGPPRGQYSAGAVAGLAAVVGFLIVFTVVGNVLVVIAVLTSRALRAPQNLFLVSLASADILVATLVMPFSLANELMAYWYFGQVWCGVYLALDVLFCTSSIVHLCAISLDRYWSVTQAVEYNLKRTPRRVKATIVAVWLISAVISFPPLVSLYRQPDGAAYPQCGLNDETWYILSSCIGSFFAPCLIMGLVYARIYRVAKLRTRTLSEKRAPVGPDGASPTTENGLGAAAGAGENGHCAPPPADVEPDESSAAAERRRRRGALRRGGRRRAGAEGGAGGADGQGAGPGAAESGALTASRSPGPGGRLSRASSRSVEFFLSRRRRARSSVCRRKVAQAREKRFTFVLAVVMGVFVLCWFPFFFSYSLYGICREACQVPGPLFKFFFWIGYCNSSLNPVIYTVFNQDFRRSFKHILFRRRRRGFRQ
In words: Radioligand binding to alpha2-adrenoceptors (alpha2C). As to conditions: calculated Ki from radioligand binding assays; read-out: Binding affinity (Ki) alpha2C.

Assay [2] has as its target T2, alpha2B-adrenoceptor (Homo sapiens, UniProt P18089).
T2 sequence (P18089 1-450): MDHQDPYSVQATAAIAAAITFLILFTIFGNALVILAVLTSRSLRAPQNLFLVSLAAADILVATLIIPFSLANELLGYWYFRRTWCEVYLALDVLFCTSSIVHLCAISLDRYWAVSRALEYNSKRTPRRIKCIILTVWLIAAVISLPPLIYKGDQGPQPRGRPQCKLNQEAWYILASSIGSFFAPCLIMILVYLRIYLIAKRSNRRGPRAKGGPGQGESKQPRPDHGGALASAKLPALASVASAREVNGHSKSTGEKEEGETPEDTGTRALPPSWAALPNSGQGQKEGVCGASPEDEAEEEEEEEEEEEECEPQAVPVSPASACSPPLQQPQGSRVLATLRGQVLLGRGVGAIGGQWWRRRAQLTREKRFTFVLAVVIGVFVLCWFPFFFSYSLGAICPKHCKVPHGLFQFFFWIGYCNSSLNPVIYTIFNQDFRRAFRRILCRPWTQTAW
Description: Radioligand binding to alpha2-adrenoceptors (alpha2B). The settings on record: calculated Ki from radioligand binding assays; read-out: Binding affinity (Ki) alpha2B. The source says: Examples of the alpha2-adrenoceptor binding affinities of the compounds including in the present invention are shown in the Table 1. Many of these compouinds are high-affinity ligands for all the alpha2-receptors, but some of them display selectivity for the alpha2C-subtype.

Assay [3] addresses T2, alpha2B-adrenoceptor. In words: Inhibition of epinephrine-stimulated 35S-GTPγS binding, CHO cell membranes (alpha2B). As to conditions: mean, read-out: Antagonist potency (KB) alpha2B. The class given is biochemical. Also noted: expressed in transfected cells; host or cells: CHO cells (membranes). How it is done:
(§1) The functional activities of two compounds (K and L) displaying alpha2C-selectivity in binding experiments were determined as the abilities of the compounds to inhibit the epinephrine-stimulated binding of ^35S-GTPγS to G proteins (Jasper, J. R. et al., Biochem. Pharmacol. 55(7) (1998) 103544) in membranes of CHO cells stably transfected with the human alpha2-adrenoceptor subtypes.
On the technique in general: GTPγS resists hydrolysis and so accumulates on activated G proteins.

Assay [4] concerns the target T3, alpha2A-adrenoceptor (Homo sapiens, UniProt P08913).
T3 sequence (P08913 1-465): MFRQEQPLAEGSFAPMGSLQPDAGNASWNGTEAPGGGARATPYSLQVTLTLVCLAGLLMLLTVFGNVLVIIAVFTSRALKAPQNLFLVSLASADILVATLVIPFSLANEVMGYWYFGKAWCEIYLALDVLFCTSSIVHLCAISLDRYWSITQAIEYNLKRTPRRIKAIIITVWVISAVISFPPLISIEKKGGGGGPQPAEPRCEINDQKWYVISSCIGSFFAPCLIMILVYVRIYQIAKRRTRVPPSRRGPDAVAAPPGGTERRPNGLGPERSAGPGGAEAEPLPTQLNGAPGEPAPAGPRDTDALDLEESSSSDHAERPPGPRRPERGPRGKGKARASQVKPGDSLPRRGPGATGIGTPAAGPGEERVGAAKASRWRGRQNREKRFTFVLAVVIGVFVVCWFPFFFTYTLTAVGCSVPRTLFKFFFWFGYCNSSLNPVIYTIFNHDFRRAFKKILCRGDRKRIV
Description: Radioligand binding to alpha2-adrenoceptors (alpha2A). As to conditions: calculated Ki from radioligand binding assays; read-out: Binding affinity (Ki) alpha2A.

The target in assay [5] is T1, alpha2C-adrenoceptor. In words: Inhibition of epinephrine-stimulated 35S-GTPγS binding, CHO cell membranes (alpha2C). Type of assay: biochemical. Also noted: expressed in transfected cells; host or cells: CHO cells (membranes). The settings on record: mean, read-out: Antagonist potency (KB) alpha2C. How it is done: as §1
The target in assay [6] is T3, alpha2A-adrenoceptor. In words: Inhibition of epinephrine-stimulated 35S-GTPγS binding, CHO cell membranes (alpha2A). Type of assay: biochemical. Also noted: expressed in transfected cells; host or cells: CHO cells (membranes). The settings on record: mean, read-out: Antagonist potency (KB) alpha2A. How it is done: as §1
The subject of another assay is rats. In words: Forced swimming test. The class given is in vivo. As to conditions: 3 micromol/kg, compared to vehicle. How it is done: Forced swimming test (FST, i.e. Porsolt's test) is generally used in the pharmacological screening of new-antidepressants. In this test, antidepressants increase the animals' activity compared to non-treated controls. […] Therefore, it was tested, whether a selective alfa2C-antagonist would have antidepressant-like activity (e.g. activity-increasing property) in the FST. […] Also the positive control substances desipramine and fluoxetine (clinically effective antidepressant agents) were active.

Another assay deals with mice. Description: Antagonism of alpha2-agonist (dexmedetomidine)-induced sedation. The class given is in vivo. As to conditions: dexmedetomidine 50 nmol/kg s.c., antagonist pre-treatment. How it is done:
(veh=vehicle). (***p<0.001, compared to Dex+vehicle)
One of the prominent effects of non-selective alpha2-agonists in rodents is their ability to cause profound sedation. This effect, measured as locomotor inhibition by the alpha2-agonist dexmedetomidine was not modified in mice with genetically altered alpha2C-expression (Scheinin, M. et al., Life Sci 68(19-20) (2001) 2277-85). […] This assumption was tested in experiment, where dexmedetomidine was administered to mice pre-treated with the alpha2C-antagonists compound K or compound L, or the subtype non-selective antagonist atipamezole (Haapalinna, A. et al., Naunyn-Schmiedeberg's Arch. Pharmacol. 356 (1997) 570-582).

The Ki is a measure of affinity in units of concentration, obtained from inhibition or displacement. As usually defined, the Kb is the equilibrium dissociation constant of an antagonist, usually derived from a functional assay. For `CC[C@]1(CO)CCCN2CCc3c([nH]c4ccccc34)[C@@H]21` (relative stereo) [Compound L], the figures for the Ki on alpha2C-adrenoceptor [1], at alpha2B-adrenoceptor [2] and at alpha2A-adrenoceptor [4] were 18 nM, 20 nM and 85 nM, respectively. Also, the Kb at alpha2B-adrenoceptor [3] came out at 75 nM; at alpha2C-adrenoceptor [5] it was 4.2 nM; at alpha2A-adrenoceptor [6], 320 nM. In addition, the “Activity in the forced swimming test” value in the assay on rats is on record as “increased activity”. In the assay with mice, the “Antagonism of dexmedetomidine-induced sedation (locomotor inhibition)” value is “did not have clear effects”.

For the molecule `CCC1(O)CCCN2CCc3c([nH]c4ccccc34)C21` (stereo not drawn) [Compound K, 1α-Ethyl-1,2,3,4,6,7,12,12bβ-octahydroindolo[2,3-]quinolizin-1-ol], the inhibition constant (Ki) at alpha2C-adrenoceptor [1] is 31 nM; on alpha2B-adrenoceptor [2], 245 nM; on alpha2A-adrenoceptor [4] it was 359 nM. Also, the Kb was found to be 351 nM at alpha2B-adrenoceptor [3], 23 nM on alpha2C-adrenoceptor [5] and 295 nM on alpha2A-adrenoceptor [6]. Moreover, in the assay with rats, the “Activity in the forced swimming test” value is reported as “increased activity”. In the assay with mice, the “Antagonism of dexmedetomidine-induced sedation (locomotor inhibition)” value was “did not have clear effects”.
